Source: patent US9718828B2 (MERCK SHARP & DOHME CORP., priority 2011, dated 2017)
Counter-ions that a name gives are not always drawn.

biological target: Btk enzyme (His-Btk) (Homo sapiens (Human), UniProt Q06187); assay: Btk enzyme activity, IMAP fluorescence polarization assay (Assay Method A); details: not given
Sequence (Q06187 whole entry): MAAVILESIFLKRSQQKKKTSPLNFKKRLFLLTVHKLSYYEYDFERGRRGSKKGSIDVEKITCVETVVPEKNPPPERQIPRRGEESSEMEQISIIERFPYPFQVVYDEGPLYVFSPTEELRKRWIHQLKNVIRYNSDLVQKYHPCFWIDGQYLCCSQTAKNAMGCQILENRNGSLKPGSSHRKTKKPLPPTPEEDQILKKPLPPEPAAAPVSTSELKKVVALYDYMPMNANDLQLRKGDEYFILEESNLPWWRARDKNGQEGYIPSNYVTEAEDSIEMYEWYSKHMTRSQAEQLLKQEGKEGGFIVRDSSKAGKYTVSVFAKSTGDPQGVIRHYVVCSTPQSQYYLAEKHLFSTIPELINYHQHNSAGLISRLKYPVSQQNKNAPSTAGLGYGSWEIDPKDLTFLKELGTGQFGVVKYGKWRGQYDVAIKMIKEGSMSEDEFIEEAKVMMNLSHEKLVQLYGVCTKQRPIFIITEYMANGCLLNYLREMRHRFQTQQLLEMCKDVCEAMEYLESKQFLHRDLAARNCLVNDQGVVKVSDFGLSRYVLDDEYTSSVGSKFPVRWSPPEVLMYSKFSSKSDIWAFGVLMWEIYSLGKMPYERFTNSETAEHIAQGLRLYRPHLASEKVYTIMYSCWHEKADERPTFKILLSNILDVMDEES

EC50, < 10 nM:
CC(C)(F)C(=O)N1CCC[C@@H](c2nc(-c3ccc(C(=O)Nc4cc(C5CC5)ccn4)cc3)c3c(N)nccn23)C1 [Example 64, (R)-4-(8-amino-3-(1-(2-fluoro-2-methylpropanoyl)piperidin-3-yl)imidazo[1,5-a]pyrazin-1-yl)-N-(4-cyclopropylpyridin-2-yl)benzamide]
Nc1nccn2c(C3CCc4[nH]nc(C5CC5)c4C3)nc(-c3ccc(C(=O)Nc4cc(C(F)(F)F)ccn4)cc3)c12 (centres unmarked) [Example 248, 4-(8-amino-3-(3-cyclopropyl-4,5,6,7-tetrahydro-1H-indazol-5-yl)imidazo[1,5-a]pyrazin-1-yl)-N-(4-(trifluoromethyl)pyridin-2-yl)benzamide]
N#Cc1ccnc(NC(=O)c2ccc(-c3nc([C@@H]4CCCN(C(=O)C5CC5)C4)n4ccnc(N)c34)cc2)c1 [Example 98, (R)-4-(8-amino-3-(1-(cyclopropanecarbonyl)piperidin-3-yl)imidazo[1,5-a]pyrazin-1 yl)-N-(4-cyanopyridin-2-yl)benzamide]
CC1(C(=O)N2CCC[C@@H](c3nc(-c4ccc(C(=O)Nc5cc(C(F)(F)F)ccn5)cc4)c4c(N)ncnn34)C2)CCC1 [Example 254, (R)-4-(4-amino-7-(1-(1-methylcyclobutanecarbonyl)piperidin-3-yl)imidazo[1,5-f][1,2,4]triazin-5-yl)-N-(4-(trifluoromethyl)pyridin-2-yl)benzamide]

EC50, 10 to 100 nM:
CCN1CCC[C@@H](c2nc(-c3ccc(C(=O)Nc4cc(C(F)(F)F)ccn4)cc3)c3c(N)nccn23)C1 [Example 138, (R)-4-(8-amino-3-(1-ethylpiperidin-3-yl)imidazo[1,5-a]pyrazin-1-yl)-N-(4-(trifluoromethyl)pyridin-2-yl)benzamide, TFA salt]
COc1cccc(-c2cnc(N)c3c(-c4ccc(C(=O)Nc5cc(C(F)(F)F)ccn5)cc4)nc([C@@H]4CCCN(C(=O)C5(C)COC5)C4)n23)c1 [Example 320, (R)-4-(8-amino-5-(3-methoxyphenyl)-3-(1-(3-methyloxetane-3-carbonyl)piperidin-3-yl)imidazo[1,5-a]pyrazin-1-yl)-N-(4-(trifluoromethyl)pyridin-2-yl)benzamide]
Nc1nccn2c([C@@H]3CCCN(C(=O)C(=O)c4ccco4)C3)nc(-c3ccc(C(=O)Nc4cc(C5CC5)ccn4)cc3)c12 [Example 123, (R)-4-(8-amino-3-(1-(2-(furan-2-yl)-2-oxoacetyl)piperidin-3-yl)imidazo[1,5-a]pyrazin-1-yl)-N-(4-cyclopropylpyridin-2-yl)benzamide]
CC1(C)CC(c2nc(-c3ccc(C(=O)Nc4cc(C#N)ccn4)cc3)c3c(N)nccn23)CCO1 (centres unmarked) [Example 37, 4-(8-amino-3-(2,2-dimethyltetrahydro-2H-pyran-4-yl)imidazo[1,5-a]pyrazin-1-yl)-N-(4-cyanopyridin-2-yl)benzamide]
CC1(C(=O)N2CCC[C@@H](c3nc(-c4ccc(C(=O)Nc5cc(C(F)(F)F)ccn5)cc4)c4c(N)ncc(C5=CCOCC5)n34)C2)COC1 [Example 322, (R)-4-(8-amino-5-(3,6-dihydro-2H-pyran-4-yl)-3-(1-(3-methyloxetane-3-carbonyl)piperidin-3-yl)imidazo[1,5-a]pyrazin-1-yl)-N-(4-(trifluoromethyl)pyridin-2-yl)benzamide]
Nc1nccn2c([C@@H]3CCC[C@H](N)C3)nc(-c3ccc(C(=O)Nc4cc(C(F)(F)F)ccn4)cc3)c12 (relative stereo) [Example 157, 4-(8-amino-3-((cis)-3-aminocyclohexyl)imidazo[1,5-a]pyrazin-1-yl)-N-(4-(trifluoromethyl)pyridin-2-yl)benzamide]

EC50, 100 to 1000 nM:
CN(C)CCCC(=O)N1CC[C@@H](c2nc(-c3ccc(C(=O)Nc4ccccn4)cc3)c3c(N)nccn23)C1 [Example 124, (R)-4-(8-amino-3-(1-(4-(dimethylamino)butanoyl)pyrrolidin-3-yl)imidazo[1,5-a]pyrazin-1-yl)-N-(pyridin-2-yl)benzamide]
Cc1nc(-c2ccc(C(=O)Nc3cc(C(F)(F)F)ccn3)cc2)c2c(N)ncc(C(=O)NC3CCN(C)CC3)n12 [Example 295, 8-amino-3-methyl-N-(1-methylpiperidin-4-yl)-1-(4-(4-(trifluoromethyl)pyridin-2-ylcarbamoyl)phenyl)imidazo[1,5-a]pyrazine-5-carboxamide]
Nc1nccn2c([C@@H]3CCCN(Cc4ccccc4)C3)nc(-c3ccc(C(=O)Nc4ccccn4)cc3)c12 [Example 133, (R)-4-(8-amino-3-(1-benzylpiperidin-3-yl)imidazo[1,5-a]pyrazin-1-yl)-N-(pyridin-2-yl)benzamide]

same assay, conditions: read-out: EC50 Btk activity values - Assay Method A; IMAP-FP, 60 min pre-incubation, 5 μM ATP; class 100-1000 is given as ≧100 nM-<1 μM

EC50, < 10 nM:
CC(CO)(CO)C(=O)N1CCC[C@@H](c2nc(-c3ccc(C(=O)Nc4cc(C(F)(F)F)ccn4)cc3)c3c(N)nccn23)C1 [Example 105, (R)-4-(8-amino-3-(1-(3-hydroxy-2-(hydroxymethyl)-2-methylpropanoyl)piperidin-3 yl)imidazo[1,5-a]pyrazin-1-yl)-N-(4-(trifluoromethyl)pyridin-2-yl)benzamide]
COCCC(=O)N1C[C@@H](O)C[C@@H](c2nc(-c3ccc(C(=O)Nc4cc(C(F)(F)F)ccn4)cc3)c3c(N)nccn23)C1 (relative stereo) [Example 181, 4-(8-amino-3-((cis)-5-hydroxy-1-(3-methoxypropanoyl)piperidin-3-yl)imidazo[1,5-a]pyrazin-1-yl)-N-(4-(trifluoromethyl)pyridin-2-yl)benzamide]
Nc1nccn2c([C@@H]3CCCN(Cc4ccncc4)C3)nc(-c3ccc(C(=O)Nc4cc(C(F)(F)F)ccn4)cc3)c12 [Example 141, (R)-4-(8-amino-3-(1-(pyridin-4-ylmethyl)piperidin-3-yl)imidazo[1,5-a]pyrazin-1-yl)-N-(4-(trifluoromethyl)pyridin-2-yl)benzamide, TFA salt]
CC1(C(=O)N2CCC[C@@H](c3nc(-c4ccc(C(=O)Nc5cc(C(F)(F)F)ccn5)cc4)c4c(N)ncc(-c5ccco5)n34)C2)COC1 [Example 311, (R)-4-(8-amino-5-(furan-2-yl)-3-(1-(3-methyloxetane-3-carbonyl)piperidin-3-yl)imidazo[1,5-a]pyrazin-1-yl)-N-(4-(trifluoromethyl)pyridin-2-yl)benzamide]
Nc1nccn2c(N3CCCC(C(=O)NC4CC(F)(F)C4)C3)nc(-c3ccc(C(=O)Nc4cc(C(F)(F)F)ccn4)cc3)c12 (centres unmarked) [Example 226, 1-(8-amino-1-(4-(4-(trifluoromethyl)pyridin-2-ylcarbamoyl)phenyl)imidazo[1,5-a]pyrazin-3-yl)-N-(3,3-difluorocyclobutyl)piperidine-3-carboxamide, TFA salt]
CCNC(=O)N1CCC[C@@H](c2nc(-c3ccc(C(=O)Nc4ccccn4)cc3)c3c(N)nccn23)C1 [Example 48, (R)-3-(8-amino-1-(4-(pyridin-2-ylcarbamoyl)phenyl)imidazo[1,5-a]pyrazin-3-yl)-N-ethylpiperidine-1-carboxamide]
CCCc1ccnc(NC(=O)c2ccc(-c3nc(C4CCOC(C)(C)C4)n4ccnc(N)c34)cc2)c1 (centres unmarked) [Example 36, 4-(8-amino-3-(2,2-dimethyltetrahydro-2H-pyran-4-yl)imidazo[1,5-a]pyrazin-1-yl)-N-(4-propylpyridin-2-yl)benzamide]
